Where a name gives a salt, the structure may show the parent alone. Calls of active or inactive are those of the source. No rule for the calls is given here.
Assay: Cytotoxicity activity against human HepG2 cells assessed by CellTiter-Glo luminescent cell viability assay.
Assay type: toxicity, cell-based
Parameters: assay stage confirmatory assay, source tissue liver
Conditions: HepG2 cells, read-out: IC50 relative

Structure (SMILES)	CC50
CCc1nc(C)c([C@H](C)N(C)Cc2cccnc2N)s1	13.8 µM (active)
COc1ccc(-c2cc3c4nn(CC(=O)Nc5ccccc5)c(=O)n4ccn3n2)cc1	50 µM (inactive)
CCN1C[C@H](CN(C)CC(=O)c2c(N)n(C3CC3)c(=O)[nH]c2=O)Oc2ccccc21	13.8 µM (inactive)
CCc1ccc2nc(N3CCC(C(=O)NCCN(CC)CC)CC3)sc2c1	3.1 µM (active)
CC(=O)Nc1cccc(-n2c(=O)n(C3CC3)c(=O)c3c(Nc4ccc(I)cc4F)n(C)c(=O)c(C)c32)c1 [TRAMETINIB]	< 0.1 µM (active)
O=C(CN1C(=O)COc2ccc(Cl)cc21)N1CCC(c2c[nH]c3ncccc23)CC1	8.8 µM (active)
Cc1c(C(=O)Nc2ccnc3ccnn23)cnn1-c1ccccc1F	3.3 µM (active)
Cn1cc(S(=O)(=O)N2CCCC2)cc1C(=O)Nc1nc(-c2ccccn2)cs1	6.4 µM (inactive)
CCN(CC)CCCC(C)Nc1c2ccc(Cl)cc2nc2ccc(OC)cc12 (stereo not given) [QUINACRINE DIHYDROCHLORIDE]	1.1 µM (active)
Cc1ccc(C(=O)N(CCCN)[C@@H](c2nc3cc(Cl)ccc3c(=O)n2Cc2ccccc2)C(C)C)cc1 [ISPINESIB]	5.5 µM (active)
Clc1ccc2oc(C3CCNCC3)cc2c1	10.1 µM (active)
Cc1csc2nc(CN[C@H](c3ccc(Cl)cc3)C3CC3)cc(=O)n12	2.6 µM (active)
COc1cc(OC)c(C2=CCN(C[C@H](O)COc3ccccc3F)CC2)c(OC)c1	6 µM (active)
CCCS(=O)(=O)N1CCc2ccc(NC(=O)Nc3ccc(OCC)cc3)cc21	50 µM (inactive)
COc1ccsc1C(=O)Nc1ncc(Cl)s1	2.3 µM (active)
CSc1cccc(NC(=O)Nc2ccc3c(c2)N(S(C)(=O)=O)CC3)c1	5.4 µM (active)
CCc1nccn1[C@H]1CCCN(CCOc2ccc(OC)cc2)C1	4.1 µM (active)
CCc1ccc(S(=O)(=O)N2CCN(c3cc(-n4ccc(C)n4)ncn3)CC2)cc1	6.7 µM (active)
Cc1ccc([N+](=O)[O-])cc1S(=O)(=O)N(C)/N=C/c1cnc2ccc(Br)cn12	< 0.1 µM (active)
CN(C)S(=O)(=O)N1CCN(C(=O)c2cnn(-c3ccc(Cl)cc3)c2C(F)(F)F)CC1	5.2 µM (active)
O=C(c1c[nH]c(-c2ccccn2)c1)c1ccccc1O	12.6 µM (inactive)
O=C(Cc1ccsc1)Nc1nc(-c2ccccn2)cs1	3.2 µM (active)

Structure (SMILES)	CC50
CN[C@H](C(=O)N[C@H](C(=O)N(C)[C@H](/C=C(\C)C(=O)O)C(C)C)C(C)(C)C)C(C)(C)c1ccccc1 [TALTOBULIN]	0.2 µM (active)
CNc1ccc(Br)cc1N	4.1 µM (active)
Cc1nccn1-c1ccc(NC(=O)c2cccc(OC(C)C)n2)cn1	6.5 µM (active)
O=C(Nc1ccnc2ccnn12)c1ccc2ccccc2n1	1.4 µM (active)
N[C@H]1CC[C@H](Nc2cc(-c3cccc(NCc4cccc(F)c4)n3)c(Cl)cn2)CC1	0.1 µM (active)
CN([C@H]1CCN(c2ccccc2F)C1=O)S(=O)(=O)c1cccc2cnccc12	4.3 µM (active)
CNc1c(Cl)ncnc1NCc1cccc(Cn2cccn2)c1	1.4 µM (active)
COc1ccc(Nc2nc(NCCCO)c3ccccc3n2)cc1	8.2 µM (active)
CN(C)c1ccc(Cl)cc1NC(=O)c1cn(CCC2CCCCN2)nn1 (stereo not given)	6.8 µM (active)
CN(C)S(=O)(=O)c1ccc2oc(SCCOc3ccccc3)nc2c1	10 µM (active)
CC1=C(c2ccccc2)C1C(=O)NC1(C(N)=O)CCCCC1 (stereo not given)	14.7 µM (active)
F[C@H](c1nc(-c2ccc(OCc3cccnc3)cc2)no1)C1CNC1	8.2 µM (active)
COC[C@H](C)Nc1cccc(N(C)C(C)C)c1	8.6 µM (active)
CCC(C)(C)C(=O)O[C@H]1C[C@@H](C)C=C2C=C[C@H](C)[C@H](CC[C@@H]3C[C@@H](O)CC(=O)O3)[C@H]21 [SIMVASTATIN]	17.1 µM (inactive)
CCCN1CCC(NC(=O)c2nn(-c3cccc(Cl)c3)nc2C)CC1	16.3 µM (inactive)
CCOc1ccccc1NC(=O)c1cnc2sc(N3CCOCC3)nn2c1=O	15.6 µM (inactive)
Cc1ccccc1Oc1ccnc(CNC(=O)c2nccn2C)c1	1.1 µM (active)
C[C@@H]1CCCN1CCc1cc2cc(-c3ccc(C#N)cc3)ccc2o1	6.1 µM (active)
C#CCN(Cc1cc2c(=O)[nH]c(C)nc2cc1Br)c1ccc(C(=O)NCc2cccnc2)cc1	0.1 µM (active)
CCOc1ccc(S(=O)(=O)N(C)c2ccccc2)cc1	7.5 µM (inactive)
O=C(c1ccc(F)cc1)N1CCN(Cc2noc(-c3ccc(F)cc3)n2)CC1	5.8 µM (active)
Cc1ncc(NC(=O)c2ccc(CN3CCN(C)CC3)c(C(F)(F)F)c2)cc1Nc1nccc(-c2cccnc2)n1 [FLUMATINIB]	3.3 µM (active)

Structure (SMILES)	CC50
CN(C)Cc1cccc(N/C(=C2\C(=O)Nc3cc(C(=O)N(C)C)ccc32)c2ccccc2)c1	10 µM (active)
O=C(Nc1cccc(C(F)(F)F)c1)Nc1cc(S(=O)(=O)NC2CC2)ccc1-c1ccsc1	10.1 µM (active)
COc1ccc(OC)c(C2CC(c3c(O)[nH]c(=O)n(C4CCCCC4)c3=O)=NN2)c1 (stereo not given)	5.7 µM (active)
CCNC(=O)Nc1ccc(-c2nc3c(c(N4CCOC[C@@H]4C)n2)CCN(c2ncccn2)C3)cc1	0.2 µM (active)
CN(C)CCCN(CCCN(C)C)CC1=CCC2CC1C2(C)C (stereo not given)	9.6 µM (active)
CCOc1ccc(OCC)c(NC(=O)c2ccc(N3CCN(C(C)C)CC3)cc2)c1	9.8 µM (active)
CCN(CC)Cc1cc(Nc2ccnc3cc(Cl)ccc23)ccc1O [AMODIAQUINE HYDROCHLORIDE]	3 µM (active)
O=C(Nc1ccccn1)c1cccc(NS(=O)(=O)c2c[nH]c3ncccc23)c1	8.6 µM (active)
CC(C)COCC(O)CN1CCCN(c2ccc(NC(=O)COc3ccc(Cl)cc3)cn2)CC1 (stereo not given)	5.8 µM (active)
COc1cc(NS(C)(=O)=O)ccc1Nc1c2ccccc2nc2ccccc12 [AMSACRINE]	2.7 µM (active)
CC1CCN(CCNC(=O)c2c(O)c3sccc3n(Cc3ccccc3)c2=O)CC1	22.3 µM (inactive)
COc1ccc(-c2c[nH]c3nccc(-c4ccsc4)c23)c(OC)c1	7.9 µM (active)
CCCCc1cc(NC(=O)[C@H]2CC(=O)N(Cc3ccccc3)C2)[nH]n1	1.8 µM (active)
O=c1cnnc(NCc2ccccc2)n1Cc1ccccc1	4.5 µM (active)
C=C(C)[C@H]1Cc2c(ccc3c2O[C@@H]2COc4cc(OC)c(OC)cc4[C@@H]2C3=O)O1 [ROTENONE]	0.5 µM (active)
CCOC(=O)C(C)Oc1cccc2c(=O)n(CC(=O)Nc3ccc(OC)cc3)ccc12 (stereo not given)	15.4 µM (inactive)
CC(=O)N1CCSc2ccc(S(=O)(=O)N3CCN(Cc4ccc5c(c4)OCO5)CC3)cc21	6.4 µM (active)
COc1cc(-c2cc(C)no2)ccc1S(=O)(=O)Nc1cc(OC)c(OC)c(OC)c1	4.5 µM (active)
CCc1cc2c(cc1N1CCC(N3CCOCC3)CC1)C(C)(C)c1[nH]c3cc(C#N)ccc3c1C2=O [ALECTINIB]	18.9 µM (inactive)
Cc1ccc(-c2cc3c(=O)n(Cc4noc(CN5CCN(C)CC5)n4)ccn3n2)cc1	9.4 µM (active)
CC(C)[C@H](CO)Nc1nc(Nc2cccc(Cl)c2)c2ncn(C(C)C)c2n1 [PURVALANOLA]	14.4 µM (active)

— ChEMBL document CHEMBL5303711, “ECBD screening data for assay EOS300108” (2023)
